In patent US11420956B2, “Ureas having Androgen Receptor degradation activity and uses thereof” (ACCUTAR BIOTECHNOLOGY INC., priority 2019, dated 2022):
Changes are numbered by the printed parent chain.

Tests used:
Assay type in all cases: cell-based
Details in all cases: 24 hours after administration
androgen receptor (AR) [1] = target: T1, androgen receptor (AR) (Homo sapiens, UniProt P10275); experiment: AR degradation in VCAP cells (Western blot)
T1 construct: endogenous in cells; host or cells: VCAP
T1 sequence (P10275 1-920): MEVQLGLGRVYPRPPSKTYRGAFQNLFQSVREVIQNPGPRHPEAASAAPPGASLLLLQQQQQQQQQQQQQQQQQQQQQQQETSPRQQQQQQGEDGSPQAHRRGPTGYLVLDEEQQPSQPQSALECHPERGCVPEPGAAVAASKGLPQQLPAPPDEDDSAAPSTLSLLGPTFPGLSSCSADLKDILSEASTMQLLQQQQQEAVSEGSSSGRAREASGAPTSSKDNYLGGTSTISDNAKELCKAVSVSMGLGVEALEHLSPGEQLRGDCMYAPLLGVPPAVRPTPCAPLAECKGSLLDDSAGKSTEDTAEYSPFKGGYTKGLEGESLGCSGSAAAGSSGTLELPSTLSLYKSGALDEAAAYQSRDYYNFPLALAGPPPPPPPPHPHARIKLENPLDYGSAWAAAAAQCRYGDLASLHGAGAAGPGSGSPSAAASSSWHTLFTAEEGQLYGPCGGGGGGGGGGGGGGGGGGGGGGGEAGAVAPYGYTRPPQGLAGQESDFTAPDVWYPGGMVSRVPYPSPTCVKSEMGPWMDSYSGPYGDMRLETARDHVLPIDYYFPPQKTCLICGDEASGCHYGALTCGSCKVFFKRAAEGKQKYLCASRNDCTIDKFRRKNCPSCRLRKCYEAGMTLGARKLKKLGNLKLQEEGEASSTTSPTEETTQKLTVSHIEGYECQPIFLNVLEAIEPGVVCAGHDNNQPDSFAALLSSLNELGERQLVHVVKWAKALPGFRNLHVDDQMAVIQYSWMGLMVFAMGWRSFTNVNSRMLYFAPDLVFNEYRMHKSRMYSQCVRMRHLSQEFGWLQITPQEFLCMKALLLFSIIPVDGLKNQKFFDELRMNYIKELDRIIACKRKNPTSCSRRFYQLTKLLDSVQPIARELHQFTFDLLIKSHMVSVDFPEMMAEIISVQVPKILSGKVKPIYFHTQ
Procedure: (§1) LNCAP, VCAP and 22Rv1 cells were plated in 24-well plates at 1.5×10E5 cells/well in the RPMI growth medium containing 10% FBS and 1% Penicillin Streptomycin, and then incubated at 37° C. overnight. The following day, the test compound was administered to the cells by using 1000× compound stock solution prepared in DMSO at various concentrations. After administration of the compound, the cells were then incubated at 37° C. for 24 hours. Upon completion, the cells were washed with PBS and protein was collected in Laemmli sample buffer (1×; VWR International). Proteins in cell lysate were separated by SDS-PAGE and transferred to Odyssey nitrocellulose membranes (Licor) with iblot® dry blotting transfer system (ThermoFisher). Nonspecific binding was blocked by incubating membranes with Intercept Blocking Buffer (Licor) for 1 hour at room temperature with gentle shaking. The membranes were then incubated overnight at 4° C. with Primary antibodies rabbit anti-AR (1:1,000, Cell Signaling, 5153) and mouse anti-GAPDH (1:5,000, Santa Cruz Biotechnology, sc-47724) diluted in Intercept Blocking Buffer containing 0.1% Tween 20. After washing 3 times with TBS-T, the membranes were incubated with IRDye® […] goat anti-mouse IgG (1:20,000, Licor) or IRDye® […] goat anti-rabbit IgG (1:20,000, Licor) for 1 hour. After TBS-T washes, membranes were rinsed in TBS and scanned on Odyssey® CLx Imaging System (Licor). The bands were quantified using Image Studio™ Software (Licor).
(§2) Tables 5 and 6 summarize the androgen receptor (AR) degradative activity of exemplary compounds in LNCAP, VCAP and 22Rv1 cell lines 24 hours after administration. DC50: compound concentration needed for 50% target protein degradation.

androgen receptor (AR) [2] = experiment: AR degradation in 22Rv1 cells (Western blot)
Procedure: as §1, §2

androgen receptor (AR) [3] = target: T2, androgen receptor (AR) (Homo sapiens, UniProt P10275, T878A); experiment: AR degradation in LNCAP cells (Western blot)
T2 construct: endogenous in cells; host or cells: LNCAP
T2 sequence (P10275 1-920 T878A): T1 sequence (P10275 1-920) with T878A
Summary of the method: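 Cells plated in RPMI with 10% FBS overnight, then treated with compound at various concentrations (from 1000× DMSO stocks) for 24 h at 37 °C. AR level measured by Western blot with GAPDH as loading control, infrared-fluorescent detection and band quantification; DC50 is concentration giving 50% AR degradation.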

Molecule	DC50 (androgen receptor (AR) [1]) [nM]	DC50 (androgen receptor (AR) [2]) [nM]	DC50 (androgen receptor (AR) [3]) [nM]
(2R,5S)-4-(4-cyano-3-methoxyphenyl)-N-(4-(4-((4-(2-((S)-2,6-dioxopiperidin-3-yl)-1-oxoisoindolin-5-yl)piperazin-1-yl)methyl)piperidin-1-yl)-3-fluorophenyl)-2,5-dimethylpiperazine-1-carboxamide [Compound 1-53]	≤ 10	≤ 10	≤ 10
COc1cc(N2C[C@@H](C)N(C(=O)Nc3cnc(N4CCC(CN5CCN(c6ccc7c(c6)C(=O)N(C6CCC(=O)NC6=O)C7=O)CC5)CC4)nc3)C[C@@H]2C)ccc1C#N (stereo partly drawn) [Compound 1-27, (2R,5S)-4-(4-cyano-3-methoxyphenyl)-N-(2-(4-((4-(2-(2,6-dioxopiperidin-3-yl)-1,3-dioxoisoindolin-5-yl)piperazin-1-yl)methyl)piperidin-1-yl)pyrimidin-5-yl)-2,5-dimethylpiperazine-1-carboxamide]	≤ 10		≤ 10
C[C@@H]1CN(c2ccc(C#N)c(C(F)(F)F)c2)[C@@H](C)CN1C(=O)Nc1cnc(N2CCC(CN3CCN(c4ccc5c(c4)C(=O)N(C4CCC(=O)NC4=O)C5=O)CC3)CC2)nc1 (stereo partly drawn) [Compound 1-31, (2R,5S)-4-(4-cyano-3-(trifluoromethyl)phenyl)-N-(2-(4-((4-(2-(2,6-dioxopiperidin-3-yl)-1,3-dioxoisoindolin-5-yl)piperazin-1-yl)methyl)piperidin-1-yl)pyrimidin-5-yl)-2,5-dimethylpiperazine-1-carboxamide]	≤ 10		≤ 10
C[C@@H]1CN(c2ccc(C#N)c(Cl)c2)[C@@H](C)CN1C(=O)Nc1ccc(N2CCC(CN3CCN(c4ccc5c(c4)C(=O)N(C4CCC(=O)NC4=O)C5=O)CC3)CC2)nc1 (stereo partly drawn) [Compound 1-14, (2R,5S)-4-(3-chloro-4-cyanophenyl)-N-(6-(4-((4-(2-(2,6-dioxopiperidin-3-yl)-1,3-dioxoisoindolin-5-yl)piperazin-1-yl)methyl)piperidin-1-yl)pyridin-3-yl)-2,5-dimethylpiperazine-1-carboxamide]	≤ 10		≤ 10
C[C@@H]1CN(c2ccc(C#N)c(Cl)c2)[C@@H](C)CN1C(=O)Nc1cnc(N2CCC(CN3CCN(c4ccc5c(c4)C(=O)N(C4CCC(=O)NC4=O)C5=O)CC3)CC2)nc1 (stereo partly drawn) [Compound 1-20, (2R,5S)-4-(3-chloro-4-cyanophenyl)-N-(2-(4-((4-(2-(2,6-dioxopiperidin-3-yl)-1,3-dioxoisoindolin-5-yl)piperazin-1-yl)methyl)piperidin-1-yl)pyrimidin-5-yl)-2,5-dimethylpiperazine-1-carboxamide]		≤ 10	≤ 10
C[C@@H]1CN(c2ccc(C#N)c(Cl)c2)[C@@H](C)CN1C(=O)Nc1cnc(N2CCC(CN3CCN(c4ccc5c(c4)C(=O)N(C4CCC(=O)NC4=O)C5=O)CC3)CC2)nc1 (stereo partly drawn) [Compound 1-21, (2R,5S)-4-(3-chloro-4-cyanophenyl)-N-(2-(4-((4-(2-(2,6-dioxopiperidin-3-yl)-1,3-dioxoisoindolin-5-yl)piperazin-1-yl)methyl)piperidin-1-yl)pyrimidin-5-yl)-2,5-dimethylpiperazine-1-carboxamide]	≤ 10		≤ 10
COc1cc(N2C[C@@H](C)N(C(=O)Nc3ccc(N4CCC(CN5CCN(c6ccc7c(c6)C(=O)N(C6CCC(=O)NC6=O)C7=O)CC5)CC4)nc3)C[C@@H]2C)ccc1C#N (stereo partly drawn) [Compound 1-26, (2R,5S)-4-(4-cyano-3-methoxyphenyl)-N-(6-(4-((4-(2-(2,6-dioxopiperidin-3-yl)-1,3-dioxoisoindolin-5-yl)piperazin-1-yl)methyl)piperidin-1-yl)pyridin-3-yl)-2,5-dimethylpiperazine-1-carboxamide]	≤ 10		≤ 10
C[C@@H]1CN(C(=O)Nc2cnc(N3CCC(CN4CCN(c5ccc6c(c5)C(=O)N(C5CCC(=O)NC5=O)C6=O)CC4)CC3)nc2)[C@@H](C)CN1c1ccc(C#N)c(Cl)c1 (stereo partly drawn) [Compound 1-22, (2S,5R)-4-(3-chloro-4-cyanophenyl)-N-(2-(4-((4-(2-(2,6-dioxopiperidin-3-yl)-1,3-dioxoisoindolin-5-yl)piperazin-1-yl)methyl)piperidin-1-yl)pyrimidin-5-yl)-2,5-dimethylpiperazine-1-carboxamide]	> 100		> 100
C[C@@H]1CN(c2ccc(C#N)c(C(F)(F)F)c2)[C@@H](C)CN1C(=O)Nc1ccc(N2CCC(CN3CCN(c4ccc5c(c4)CN([C@H]4CCC(=O)NC4=O)C5=O)CC3)CC2)nc1 [Compound 1-43, (2R,5S)-4-(4-cyano-3-(trifluoromethyl)phenyl)-N-(6-(4-((4-(2-((S)-2,6-dioxopiperidin-3-yl)-1-oxoisoindolin-5-yl)piperazin-1-yl)methyl)piperidin-1-yl)pyridin-3-yl)-2,5-dimethylpiperazine-1-carboxamide]	≤ 10	≤ 10	≤ 10
COc1cc(N2C[C@@H](C)N(C(=O)Nc3cc(F)c(N4CCC(CN5CCN(c6ccc7c(c6)C(=O)N(C6CCC(=O)NC6=O)C7=O)CC5)CC4)cc3F)C[C@@H]2C)ccc1C#N (stereo partly drawn) [Compound 1-29, (2R,5S)-4-(4-cyano-3-methoxyphenyl)-N-(4-(4-((4-(2-(2,6-dioxopiperidin-3-yl)-1,3-dioxoisoindolin-5-yl)piperazin-1-yl)methyl)piperidin-1-yl)-2,5-difluorophenyl)-2,5-dimethylpiperazine-1-carboxamide]	≤ 10		≤ 10
